Results as given in US5580757A, “Cloning and expression of biologically active α-galactosidase A as a fusion protein” (The Mount Sinai School of Medicine of the City University …, priority 1994, dated 1996).
Read-outs that look alike come from different tables or passages of the source. Blank lines part the entries; values can stand above or below the molecule they belong to.

Assays:
[1] = target: recombinant human α-galactosidase A secreted by CHO DG5.3 cells (human)
[2] = target: α-Gal A-Protein A domain E fusion protein (human; Staphylococcus aureus)
[3] = test system: CHO cells secreting recombinant α-Gal A; assay: Effect of glycosylation inhibitors on the secretion of recombinant α-Gal A; assay type: cell-based, Chinese hamster; details: recombinant CHO cultures, FIG. 15; concentration not given
Text: FIG. 15. Effect of glycosylation inhibitors on the secretion of recombinant α-Gal.

[4] = target: Sambucus nigra agglutinin (Sambucus nigra); assay: SNA-Sepharose chromatography of secreted enzyme
[5] = target: human α-Gal A purified from plasma (Homo sapiens, UniProt P06280); details: read-out: Km (4-MU-α-D-Gal); cited from earlier work
[6] = target: human α-Gal A purified from spleen (Homo sapiens, UniProt P06280); details: read-out: Km (4-MU-α-D-Gal); cited from earlier work
[7] = target: recombinant human α-galactosidase A secreted by CHO DG5.3 cells (human); remark: listed apart in the source
[8] = substrate: Cc1cc(=O)oc2cc(O[C@H]3O[C@H](CO)[C@H](O)[C@H](O)[C@H]3O)ccc12; assay: purified protein, by the assay type; details: other: recombinant α-Gal A; artificial substrate; pH 4.6; 37.0 °C

shift in mobility on SDS-PAGE [1]: 7 kDa
Molecule: peptide:N-glycosidase F (from UniProt P21163) (enzyme)

% Of Recovered α-Gal A Activity in the IgG column flow-through after collagenase treatment [2]: 89%
Molecule: Collagenase (enzyme)

Molecule: tunicamycin
inhibition of secretion of α-Gal A [3]: ≤ 80%

Molecule: recombinant human α-galactosidase A secreted by CHO DG5.3 cells (enzyme)
Percent of Secreted α-Gal A Bound to SNA-Lectin [4]: 5%

Molecule: OC[C@H]1NC[C@@H](O)[C@@H](O)[C@@H]1O [deoxymannojirimycin]
α-Gal A secretion rate [3]: remains the same as the controls

Molecule: Cc1cc(=O)oc2cc(O[C@H]3O[C@H](CO)[C@H](O)[C@H](O)[C@H]3O)ccc12 [4-MU-α-D-galactopyranoside, 4-methylumbelliferyl-α-D-galactopyranoside]
Km [5]: 1900 µM
Km [6]: 2500 µM

shift in mobility on SDS-PAGE [7]: 4 kDa
Molecule: endoglycosidase F (enzyme)

Molecule: O[C@H]1[C@H]2[C@H](O)CCCN2C[C@H]1O [swainsonine]
α-Gal A secretion rate [3]: remains the same as the controls

Molecule: OC[C@H]1NC[C@H](O)[C@@H](O)[C@@H]1O [deoxynojirimycin]
α-Gal A secretion rate [3]: remains the same as the controls

B1: recombinant human α-galactosidase A (α-Gal A), secreted by CHO DG5.3 cells, purified (Homo sapiens) (protein)
chain: LDNGLARTPTMGWLHWERFMCNLDCQEEPDSCISEKLFMEMAELMVSEGWKDAGYEYLCIDDCWMAPQRDSEGRLQADPQRFPHGIRQLANYVHSKGLKLGIYADVGNKTCAGFPGSFGYYDIDAQTFADWGVDLLKFDGCYCDSLENLADGYKHMSLALNRTGRSIVYSCEWPLYMWPFQKPNYTEIRQYCNHWRNFADIDDSWKSIKSILDWTSFNQERIVDVAGPGGWNDPDMLVIGNFGLSWNQQVTQMALWAIMAAPLFMSNDLRHISPQAKALLQDKDVIAINQDPLGKQGYQLRQGDNFEVWERPLSGLAWAVAMINRQEIGGPRSYTIAVASLGKGVACNPACFITQLLPVKRKLGFYEWTSRLRSHINPTGTVLLQLENTMQMSLKDLL
Km [8]: 1900 µM
